Data set [1] can be described thus: Aqueous solubility observed on testing. The data set is classed as physicochemical. The conditions noted are these: stated on testing.
The target in data set [2] is T1, PNCK Nano-luciferase fusion (Homo sapiens, UniProt Q6P2M8).
T1 construct: host or cells: HEK293
The experiment in a line: NanoBRET Target Engagement Intracellular Kinase Assay, cell-based PNCK binding screen and dose response in HEK293 cells. The conditions noted are these: for IC50: 8-point concentration-response; for IC50 / inhibition at 1 µM / inhibition at 10 µM: HEK293; for inhibition at 1 µM: compound 1uM, read-out: Avg. Normalized % Inhibition, 1uM, Nanobret; for inhibition at 1 µM / inhibition at 10 µM: K10 tracer 1uM, normalized to staurosporine and DMSO; for inhibition at 10 µM: compound 10uM, read-out: Avg. Normalized % Inhibition, 10uM, Nanobret. A general note: In BRET a luciferase serves as donor, and the signal depends on an acceptor being close.

Data set [3] has as its target T1, PNCK Nano-luciferase fusion. The data set is described as above.

For orientation: IC50 means the midpoint of a concentration-inhibition curve. Broadly, the inhibition is the drop in the measured response relative to a control, in per cent.

“And” between values parts separate entries of the source, which are not always exact repeats. Equal entries are not always repeated.

T1 sequence (Q6P2M8 whole entry, the tested form may be a part): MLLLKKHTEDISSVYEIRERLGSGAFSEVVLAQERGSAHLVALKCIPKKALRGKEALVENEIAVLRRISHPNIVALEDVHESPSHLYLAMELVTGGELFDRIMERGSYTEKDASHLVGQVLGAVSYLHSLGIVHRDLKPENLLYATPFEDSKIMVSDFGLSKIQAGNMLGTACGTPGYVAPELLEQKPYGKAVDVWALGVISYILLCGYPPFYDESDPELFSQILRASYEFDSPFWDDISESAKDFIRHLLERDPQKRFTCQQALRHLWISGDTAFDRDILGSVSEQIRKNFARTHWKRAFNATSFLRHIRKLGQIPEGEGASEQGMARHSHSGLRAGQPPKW

Take `Cc1ccc(C)c(OCc2nc(-c3cccnn3)no2)c1C` [UM_245]: the aqueous solubility entry in data set [1] was “poor aqueous solubility”.

In turn, `COC(=O)c1cnc(Sc2nnc(-c3cccc4ccccc34)o2)cn1` [UM_254] registered an IC50 in data set [2] of 2680 nM. For the same molecule, the “Dose-Response Curve Data (NanoBRET signal, replicates)” value (“Dose-Response Curve Data” for short) is 7.15 and 8.63 and 7.69 and 7.36 in data set [2] (Concentration 1.25E-06 M); 4.80 and 4.63 and 5.32 and 4.99 in data set [2] (Concentration 2.00E-05 M); 7.32 and 7.44 and 7.90 and 7.31 in data set [2] (Concentration 2.50E-06 M); 6.60 and 7.13 and 7.18 and 7.54 in data set [2] (Concentration 5.00E-06 M); 7.54 and 7.48 and 8.39 and 8.00 in data set [2] (Concentration 6.25E-07 M); 5.13 and 5.39 and 6.19 and 4.97 in data set [3] (Concentration 1.00E-05 M). Further, the “Dose-Response Curve Data” value in data set [3] (Concentration 1.56E-07 M) is 8.00 and 8.01 and 8.11 and 8.38; in data set [3] (Concentration 3.13E-07 M), 8.00 and 8.43 and 7.99 and 7.89. Besides, the inhibition at 1 µM in data set [2] was found to be 16.1%. Besides, the inhibition at 10 µM in data set [2] turned out to be 68.2%.

In data set [2], `CC1CCc2c(sc(NC(=O)CSc3ncc(-c4ccc(F)cc4)[nH]3)c2C(N)=O)C1` (stereo not drawn) [UM_252] displayed a half-inhibitory concentration (IC50) of 1090 nM. The “Dose-Response Curve Data” value is 5.69 and 4.76 and 5.57 and 5.29 and 6.48 in data set [2] (Concentration 1.25E-06 M); 4.90 and 5.31 and 5.12 and 5.26 and 5.44 in data set [2] (Concentration 2.00E-05 M); 5.05 and 5.03 and 4.81 and 5.42 and 6.45 in data set [2] (Concentration 2.50E-06 M); 4.80 and 4.70 and 5.14 and 6.28 and 5.58 in data set [2] (Concentration 5.00E-06 M); 5.77 and 5.39 and 5.91 and 7.06 and 6.32 in data set [2] (Concentration 6.25E-07 M); 5.51 and 5.44 and 5.21 and 5.32 and 4.78 in data set [3] (Concentration 1.00E-05 M). The “Dose-Response Curve Data” value in data set [3] (Concentration 1.56E-07 M) was 6.58 and 6.82 and 6.54 and 7.24 and 6.53; in data set [3] (Concentration 3.13E-07 M), 6.79 and 6.18 and 7.47 and 6.16 and 7.19. In addition, in data set [2] (cell-based screen / comparison with parent hit), the “NanoBRET binding, result in words” value was “improving from the IC50 of UM_228 by one order of magnitude”. Besides, the inhibition at 1 µM in data set [2] came to 49.9%. For the same molecule, the inhibition at 10 µM in data set [2] worked out at 79.1%.

`Oc1c(/C=N/c2ccc(Br)cn2)sc2ccccc12` [UM_234]: in data set [2], the inhibition at 1 µM is 5.92% and the inhibition at 10 µM turned out to be 17.1%. Moreover, in data set [1], the aqueous solubility entry was “poor aqueous solubility”.

Values taken from publication PMC10249896, “AI-Assisted chemical probe discovery for the understudied Calcium-Calmodulin Dependent Kinase, PNCK” (PLOS Computational Biology, 2023).
